Measurements published in ChEMBL document CHEMBL5614382, “Discovery of a new 1-(phenylsulfonyl)-1H-indole derivative targeting the EphA2 receptor with antiproliferative activity on U251 glioblastoma cell line” (Eur J Med Chem, 2024).

Tests used:
Ephrin type-A receptor 8 = target: T1, Ephrin type-A receptor 8 (Mus musculus, UniProt O09127); test: Displacement of biotinylated Fc-tagged ephrin-A1 from recombinant N/C-terminal 6-his tagged mouse EphA8 (Gly27 to Arg540 residues) preincubated for 1 hr followed by ephrin-A1-Fc addition and measured after 4 to 5 hrs by ELISA assay
T1 sequence (O09127 whole entry): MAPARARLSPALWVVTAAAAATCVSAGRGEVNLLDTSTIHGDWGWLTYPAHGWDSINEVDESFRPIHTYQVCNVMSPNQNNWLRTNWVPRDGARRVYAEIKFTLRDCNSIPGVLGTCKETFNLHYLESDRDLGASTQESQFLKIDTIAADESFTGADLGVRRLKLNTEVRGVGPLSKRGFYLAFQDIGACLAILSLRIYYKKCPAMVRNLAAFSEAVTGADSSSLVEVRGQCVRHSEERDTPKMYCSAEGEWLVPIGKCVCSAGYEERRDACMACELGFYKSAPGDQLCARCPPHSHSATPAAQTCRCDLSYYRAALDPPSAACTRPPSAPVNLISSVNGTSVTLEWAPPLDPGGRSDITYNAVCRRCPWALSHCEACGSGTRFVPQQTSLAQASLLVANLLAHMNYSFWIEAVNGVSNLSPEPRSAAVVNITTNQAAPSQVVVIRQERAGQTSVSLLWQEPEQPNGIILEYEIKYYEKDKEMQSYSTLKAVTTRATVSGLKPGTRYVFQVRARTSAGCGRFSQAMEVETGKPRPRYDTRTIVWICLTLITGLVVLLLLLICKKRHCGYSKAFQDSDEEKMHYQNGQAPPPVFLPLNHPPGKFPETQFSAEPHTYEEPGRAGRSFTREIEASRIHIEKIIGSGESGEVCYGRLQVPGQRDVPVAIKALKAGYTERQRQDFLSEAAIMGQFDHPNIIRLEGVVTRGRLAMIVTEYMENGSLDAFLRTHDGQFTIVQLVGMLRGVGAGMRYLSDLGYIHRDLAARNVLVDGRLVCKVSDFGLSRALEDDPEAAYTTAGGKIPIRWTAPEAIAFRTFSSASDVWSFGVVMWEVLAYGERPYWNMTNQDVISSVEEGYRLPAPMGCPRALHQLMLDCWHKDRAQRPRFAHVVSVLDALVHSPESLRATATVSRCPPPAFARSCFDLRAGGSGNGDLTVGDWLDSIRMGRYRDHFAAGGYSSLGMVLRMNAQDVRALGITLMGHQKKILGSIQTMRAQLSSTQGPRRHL

Ephrin type-B receptor 3 = target: T2, Ephrin type-B receptor 3 (Mus musculus, UniProt P54754); test: Displacement of biotinylated Fc-tagged ephrin-B1 from recombinant mouse EphB3 (Leu 30 to Thru537 residues) preincubated for 1 hr followed by ephrin-B1-Fc addition and measured after 4 to 5 hrs by ELISA assay
T2 sequence (P54754 whole entry): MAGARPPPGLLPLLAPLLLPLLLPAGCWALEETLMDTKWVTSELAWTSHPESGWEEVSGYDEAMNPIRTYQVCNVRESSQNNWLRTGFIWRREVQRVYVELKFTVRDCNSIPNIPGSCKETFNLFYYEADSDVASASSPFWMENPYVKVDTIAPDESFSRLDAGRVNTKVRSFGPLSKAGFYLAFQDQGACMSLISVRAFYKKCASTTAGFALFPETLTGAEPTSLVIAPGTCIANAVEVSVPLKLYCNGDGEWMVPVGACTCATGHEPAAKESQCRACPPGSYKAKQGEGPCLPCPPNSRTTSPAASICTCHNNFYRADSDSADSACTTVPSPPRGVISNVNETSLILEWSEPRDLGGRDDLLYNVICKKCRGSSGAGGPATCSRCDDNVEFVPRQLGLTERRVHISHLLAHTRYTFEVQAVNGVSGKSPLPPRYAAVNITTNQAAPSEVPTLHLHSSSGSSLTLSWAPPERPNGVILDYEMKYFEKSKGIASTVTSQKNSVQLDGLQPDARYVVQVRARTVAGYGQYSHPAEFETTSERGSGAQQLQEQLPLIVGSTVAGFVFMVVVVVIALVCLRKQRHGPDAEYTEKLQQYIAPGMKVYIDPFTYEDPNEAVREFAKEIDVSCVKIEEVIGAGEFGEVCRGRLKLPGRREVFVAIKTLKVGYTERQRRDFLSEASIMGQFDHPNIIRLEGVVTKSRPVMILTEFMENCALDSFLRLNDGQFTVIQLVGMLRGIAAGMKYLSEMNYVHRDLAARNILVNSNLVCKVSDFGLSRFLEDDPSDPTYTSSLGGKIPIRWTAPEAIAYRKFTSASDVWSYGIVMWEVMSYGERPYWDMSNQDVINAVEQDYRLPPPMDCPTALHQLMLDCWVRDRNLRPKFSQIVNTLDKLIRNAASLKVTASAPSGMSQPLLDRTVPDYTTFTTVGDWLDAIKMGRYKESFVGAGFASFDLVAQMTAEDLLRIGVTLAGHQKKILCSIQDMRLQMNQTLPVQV

C[C@H](CCC(=O)N[C@H](CC(=O)O)Cc1cn(S(=O)(=O)c2ccccc2)c2ccccc12)[C@H]1CC[C@H]2[C@@H]3CC=C4C[C@@H](O)CC[C@]4(C)[C@H]3CC[C@]12C
IC50 (Ephrin type-A receptor 8): 5.5 µM
IC50 (Ephrin type-B receptor 3): > 30 µM

C[C@H](CCC(=O)N[C@H](CC(=O)O)Cc1cn(S(=O)(=O)c2ccc(C(F)(F)F)cc2)c2ccccc12)[C@H]1CC[C@H]2[C@@H]3CC=C4C[C@@H](O)CC[C@]4(C)[C@H]3CC[C@]12C
IC50 (Ephrin type-A receptor 8): 13 µM
IC50 (Ephrin type-B receptor 3): > 30 µM

C[C@H](CCC(=O)N[C@H](CC(=O)O)Cc1c[nH]c2ccccc12)[C@H]1CC[C@H]2[C@@H]3CC=C4C[C@@H](O)CC[C@]4(C)[C@H]3CC[C@]12C
IC50 (Ephrin type-A receptor 8): 1.8 µM
IC50 (Ephrin type-B receptor 3): 9.8 µM
